Converted amounts (≈) assume the structure as drawn.

What all share (type): functional
In test [1] the test system is Escherichia coli. Kind of test: Antibacterial activity against Escherichia coli after 18 hrs by disk diffusion method. A general note: A growth-free zone around the sample is the usual read-out of agar diffusion tests.
For test [2], the system named is Escherichia coli. Kind of test: Antibacterial activity against Escherichia coli after 18 hrs by macrodilution test.
Test [3] concerns Escherichia coli. In words: Antibacterial activity against Escherichia coli at 30 ug/disk after 18 hrs by disk diffusion method. Conditions: read-out: IZ.

As for `Clc1nc2ccccc2nc1Cl`, the “inhibition zone (IZ)” value in test [1] is listed as 6.2 mm. The MIC (as a rule, the least concentration at which growth counts as inhibited) in test [2] was determined as 512 mg/L (≈ 2570 µM).

With `CC(C)CCC[C@@H](C)[C@H]1CC[C@H]2[C@@H]3/C(=N/Nc4nc5nc6ccccc6nc5s4)C=C4C[C@@H](Cl)CC[C@]4(C)[C@H]3CC[C@]12C`, the “inhibition zone (IZ)” value in test [1] is given as 22.4 mm. Further, 32 mg/L (≈ 51.8 µM) was the least that counted as inhibitory in test [2] (MIC).

Consider `CC(C)CCC[C@@H](C)[C@H]1CC[C@H]2[C@@H]3/C(=N/NC(N)=S)C=C4CCCC[C@]4(C)[C@H]3CC[C@]12C`, for which the “inhibition zone (IZ)” value in test [1] is 9.8 mm. Also, the MIC in test [2] stood at 256 mg/L (≈ 559 µM).

In the case of `CC(=O)O[C@H]1CC[C@@]2(C)C(=C/C(=N\NC(N)=S)[C@H]3[C@@H]4CC[C@H]([C@H](C)CCCC(C)C)[C@@]4(C)CC[C@@H]32)C1`, in test [1], the “inhibition zone (IZ)” value stood at 13.2 mm. This molecule also came in with an MIC in test [2] of 128 mg/L (≈ 248 µM).

Turning to `CC(C)CCC[C@@H](C)[C@H]1CC[C@H]2[C@@H]3/C(=N/Nc4nc5nc6ccccc6nc5s4)C=C4CCCC[C@]4(C)[C@H]3CC[C@]12C`, the “inhibition zone (IZ)” value in test [1] came out at 14 mm. In test [2], this molecule registered an MIC of 128 mg/L (≈ 219 µM).

On to `CC(=O)O[C@H]1CC[C@@]2(C)C(=C/C(=N\Nc3nc4nc5ccccc5nc4s3)[C@H]3[C@@H]4CC[C@H]([C@H](C)CCCC(C)C)[C@@]4(C)CC[C@@H]32)C1`, for which, in test [1], the “inhibition zone (IZ)” value was determined as 20.8 mm. In addition, the MIC in test [2] is 64 mg/L (≈ 99.7 µM).

Regarding `CC(C)CCC[C@@H](C)[C@H]1CC[C@H]2[C@@H]3/C(=N/NC(N)=S)C=C4C[C@@H](Cl)CC[C@]4(C)[C@H]3CC[C@]12C`, the “inhibition zone (IZ)” value in test [1] stood at 14.8 mm. The molecule also yielded an MIC in test [2] of 64 mg/L (≈ 130 µM).

On to `O=C(N[C@H](CO)[C@H](O)c1ccc([N+](=O)[O-])cc1)C(Cl)Cl` [CHLORAMPHENICOL], for which the zone of inhibition at 30 µg/disc in test [3] worked out at 20 mm. Further, in test [2], 32 mg/L (≈ 99 µM) was the least that counted as inhibitory (MIC).

For `CC(C)CCC[C@@H](C)[C@H]1CC[C@H]2[C@@H]3CC=C4C[C@@H](O)CC[C@]4(C)[C@H]3CC[C@]12C` [CHOLESTEROL], in test [1], the “inhibition zone (IZ)” value was found to be 5.8 mm. Besides, the MIC in test [2] came out at 512 mg/L (≈ 1320 µM).

These data come from ChEMBL document CHEMBL1154488, “Synthesis, structure elucidation and antibacterial evaluation of new steroidal -5-en-7-thiazoloquinoxaline derivatives” (2008).
